# Laboratory results as given in patent publication US20080119548A1, “Control Of Feeding Behavior By Changing Neuronal Energy Balance” (priority 2004, published 2008).
# Experiments:
# [1] = tested on: hypothalamic AMPKα (α1 and α2); test: Western blot of phosphorylated AMPKα in hypothalamus; type: in vivo, mice; settings: for reduction of levels of pAMPKα (α1 and α2) in the hypothalamus vs vehicle: C75 i.c.v. (5 μg or 10 mg)
# Procedure: Hypothalami were dissected using as landmarks the optic chiasm rostrally, and the mammillary bodies caudally to a depth of 2 mm. Dissected hypothalamic and liver tissue were immediately frozen in liquid nitrogen. Tissues were homogenized in 200 μl of lysis buffer (50 mM Tris-HCl, pH 7.5, 250 mM sucrose, 5 mM sodium pyrophosphate, 50 mM NaF, 1 mM EDTA, 1 mM EGTA, 1 mM DTT, 0.5 mM PMSF, 0.1 mM benzamidine, 50 μg/ml leupeptin, 50 μg/ml soybean trypsin inhibitor). SDS detergent was added to a final 0.2%, and lysates were boiled for 5 min. After the supernatant was harvested, protein concentration was determined by BCA kit (Bio Rad). Phosphorylation of AMPKα was determined on a 4-15% gradient SDS-polyacrylamide gel using anti-phospho-AMPKα (α1 and α2, Thr172) antibody (1:1000, Cell Signaling). Anti-AMPKαt antibody (α1 and α2, 1:1000, Cell Signaling) was used as a loading control.
# [2] = tested on: lean, diet-induced obese (DIO), and genetically obese (ob/ob) mice; settings: cited from earlier work
# NPY mRNA = test: In situ hybridization of NPY in the arcuate nucleus; type: in vivo; settings: C75-treated (24 hr) mice
# Procedure: Anti-sense DIG-labeled NPY riboprobe was generated from a plasmid containing the NPY gene (XM004941). […] For double fluorescent in situ hybridization, DIG-labeled riboprobe was generated from plasmid containing AMPKα2 gene (pEBGα2, a gift from L. A. Witters) for AMPKα2 (FITC) and biotin-labeled riboprobe was used for NPY (Texas Red). Sheep FITC-conjugated anti-DIG antibody (1:50, Roche) was incubated in TNB buffer (100 mM Tris-HCl pH 7.5, 150 mM NaCl, and 0.5% blocking reagent) for FITC detection. Streptavidin-Texas Red (1:50, Amersham Pharmacia), rabbit anti-Texas Red antibody (1:50, Molecular Probes), goat biotin-conjugated anti-rabbit IgG antibody (1:50, Santa Cruz Biotechnology) and streptavidin-Texas Red (1:30) were incubated serially in TNB buffer for Texas Red detection.
# Images of in situ hybridization and immunohistochemistry were visualized using an Axiocam HRc digital camera (Carl Zeiss) and images were acquired using Improvision Openlab software, and quantified by NIH Image program (Macro).
# primary cortical neurons = test: ATP, AMP/ATP ratio and AMPK activity in primary cortical neurons; type: cell-based, Sprague-Dawley rats; settings: C75 treatment
# Procedure: Cortices were removed from E17 Sprague-Dawley rats (Harlan, Indianapolis, Ind.), and were dissociated by mild trypsinization and trituration as described by Dawson, et al. J Neurosci 13, 2651-2661 (1993). Cells were plated on poly-D-lysine coated plastic Nunclon culture dishes at a density of 5×10^5 cells/cm^2 in Minimum Essential Media (MEM) supplemented with horse serum, fetal bovine serum, glutamine, and the antibiotics gentamycin and kanamycin. […]
# Neurons were lysed on ice using TE buffer (100 mM Tris and 4 mM EDTA) and removed from the plate. ATP levels were then measured in the linear range using the ATP Bioluminescence Kit CLS II (Roche, Indianapolis, Ind.) by following the manufacturer's protocol, and results were read by a Perkin-Elmer Victor^2 1420.
# Adenine nucleotide levels in primary cortical neuron lysates were determined by HPLC analysis as described by Stocchi, et al. Anal Biochem 167, 181-190 (1987). […]
# AMPK activity was determined by performing SAMS peptide assays as described by Witters, et al., J Biol Chem 267, 2864-2867 (1992). […] Immunoprecipitates were then washed and resuspended in 4× assay buffer and kinase activity was assessed by measurement (for 20 min at 30° C.) of the incorporation of ^32P into the synthetic SAMS peptide substrate, HMRSAMSGLHLVKRR, (Princeton Biomolecules). […]
# [3] = tested on: primary hypothalamic neurons; test: ATP measurement in primary hypothalamic neuron cultures; type: cell-based, Sprague-Dawley rats
# Procedure: Hypothalami were dissected from E17 Sprague-Dawley rats (Harlan), and dissociated by trypsin (0.125%)-DNA (0.001%) solution and trituration as described by Landree, et al., J. Biol. Chem., 279, 3817-3827. Cells were plated at 6×10^4 on poly-D-lysine coated 96 well plates (Corning Inc.) in neurobasal medium supplemented with B27, 0.5 mM L-glutamine, 1% penicillin-streptomycin (Gibco-BRL). To limit nonneuronal cell proliferation, cells were treated with cytosine arabinoside furanoside (1 μM) on day 4 after plating and 6-8 days-old cells were assayed for ATP. Hypothalamic neurons were lysed in TE (100 mM Tris-HCl, pH 7.4, 4 mM DTA), and ATP levels were measured within the linear range using the ATP BioLuminescence Kit CLSII (Roche) by following the manufacture's recommendation. Data were analyzed by a Perkin-Elmer Victor^2 1420.
smiles,measurement,setting,value
C=C1C(=O)OC(CCCCCCCC)C1C(=O)O (centres unmarked) [C75],level of hypothalamic pAMPKα in fasted mice,"[1]; 24 hr fasting, then C75 i.p. (10 mg/kg bodyweight), vs RPMI control",profoundly reduced
same,levels of pAMPKα in the hypothalamus,"[1]; C75 10 mg/kg body weight i.p., 30 min and 3 hr",significantly reduced
same,reduction of levels of pAMPKα (α1 and α2) in the hypothalamus vs vehicle,[1]; 30 min,three
same,reduction of levels of pAMPKα (α1 and α2) in the hypothalamus vs vehicle,[1]; 3 hr,six-fold
same,hypothalamic pAMPKα level,"[1]; i.p. C75 and i.c.v. saline, 30 min after i.c.v. injection",profound decrease
same,weight loss and anorexia,[2],profound weight loss and anorexia
same,"NPY mRNA expression in the arcuate nucleus, % of control",NPY mRNA,66 % of control
same,AMPK activity in primary cortical neurons,primary cortical neurons,inactivation of AMPK
same,ratio of AMP/ATP in primary cortical neurons,primary cortical neurons,decrease in the ratio of AMP/ATP
same,"neuronal ATP levels, % of control","[3]; 40 mg/ml C75, 30 min",118 % of control
same,"neuronal ATP levels, % of control","[3]; 40 mg/ml C75, 2 hr",128 % of control
